Test results as given in PubChem BioAssay (NCI).
Where “and” joins values, the source holds several entries; their conditions need not be identical. Equal entries are not always repeated.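 Protocol summary: plate cells (96-well), add compound at 5 concentrations, incubate 48 h, interpolate endpoints linearly. GI50 is the concentration that inhibits growth by half. TGI: total growth inhibition.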

Assays:
Assay in all cases: NCI tumour cell line growth inhibition, 48 h
SNB-78 CNS = tested on: SNB-78 CNS
DLD-1 colon = tested on: DLD-1 colon
DMS 273 small cell lung = tested on: DMS 273 small cell lung
LXFL 529 NSCLC = tested on: LXFL 529 NSCLC
DMS 114 small cell lung = tested on: DMS 114 small cell lung
RXF-631 renal = tested on: RXF-631 renal
MCF7 breast = tested on: MCF7 breast
SN12K1 renal = tested on: SN12K1 renal
MDA-N = tested on: MDA-N
P388 leukemia = tested on: P388 leukemia

Compound	TGI (SNB-78 CNS)	TGI (DLD-1 colon)	TGI (DMS 273 small cell lung)	TGI (LXFL 529 NSCLC)	TGI (DMS 114 small cell lung)	TGI (RXF-631 renal)	GI50 (MCF7 breast)	TGI (MCF7 breast)	GI50 (SNB-78 CNS)	GI50 (DMS 273 small cell lung)	GI50 (DMS 114 small cell lung)	TGI (SN12K1 renal)	TGI (MDA-N)	TGI (P388 leukemia)
C=CCN1C(=O)C/C(=C2/CCC(=O)N2CC=C)C1=O	> 100 µM	> 100 µM	> 100 µM	> 100 µM	> 100 µM	> 100 µM								
CCCCCCCC(=O)O[C@H]1[C@H]2[C@@H](CC1(C)C)C(=O)[C@]13O[C@H]1C(=O)[C@]1(CO1)[C@]23C	26.6 µM and 13.5 µM	3.6 µM and 7.46 µM	22.9 µM and 15.3 µM	3.03 µM	3.41 µM and 9.4 µM	39 µM	4.99 µM	19.4 µM and 10.5 µM	12.1 µM	10.5 µM	1.61 µM	9.3 µM	26.5 µM	5.19 µM
COc1cccc(C2N3CCCCC3[C@@H]3c4[nH]c5ccccc5c4CCN23)c1OC (stereo partly drawn)	29.8 µM	31.2 µM	29.7 µM	28.5 µM	29.2 µM	32.4 µM								
O=C1CCC(=O)C(C(=O)CCC(=O)Nc2ccc(Cl)cc2)C1 (stereo not drawn)	> 100 µM	> 100 µM	> 100 µM	> 100 µM	> 100 µM	> 100 µM								
CC1(C)CC(=O)C=C(NC(=O)c2ccccc2)C1	> 100 µM	> 100 µM	> 100 µM	> 100 µM	> 100 µM	> 100 µM								
CCOc1c(Cc2ccccc2)c(=O)n2c3ccccc3n3c(=O)n(C)c(=O)c1c23	> 100 µM	> 100 µM	> 100 µM	> 100 µM	> 100 µM	> 100 µM								
Nc1ccc(C(=O)N/C(=C\c2ccc3c(c2)OCO3)c2nc3ccc4c(c3[nH]2)C(=O)c2ccccc2C4=O)cc1	> 100 µM	45.2 µM	> 100 µM	> 100 µM	> 100 µM	> 100 µM								
O=C1NC(=Nc2ccccc2Cl)SC1C(=O)Nc1ccc([N+](=O)[O-])cc1[N+](=O)[O-] (stereo not drawn)	> 100 µM	> 100 µM	> 100 µM	> 100 µM	> 100 µM	> 100 µM								
CC(C)C(NCc1c2ccccc2nc2ccccc12)C(=O)O (stereo not drawn)		> 100 µM	> 100 µM	> 100 µM	90.1 µM	97.3 µM								
CCC1C(=O)OCc2c1cc1n(c2=O)Cc2ccccc2-1 (stereo not drawn)	> 100 µM	> 100 µM	> 100 µM	> 100 µM	> 100 µM	> 100 µM								
N#CC(N)(C(=O)C(=O)NCCCNC(=O)C(=O)C(N)(C#N)c1ccc(Cl)cc1)c1ccc(Cl)cc1 (stereo not drawn)	> 100 µM	> 100 µM	> 100 µM	> 100 µM	> 100 µM	> 100 µM								
